We go through 15 compounds from EP4603105A1, “PHARMACEUTICAL COMPOSITION CONTAINING CYCLIC COMPOUND HAVING SELECTIVE KRAS INHIBITORY EFFECT AGAINST HRAS AND NRAS” (CHUGAI SEIYAKU KABUSHIKI KAISHA, priority 2022, dated 2024).

pIC50: −log10 of the molar value.

Test [1] has as its system human lung cancer strain NCI-H441. Type of test: cell-based. The gist of the method:
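Readout: […] after the ATP-based reagent. Compound: serial dilutions in dimethyl sulfoxide.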

The target of the next test is HRAS wild-type protein (Homo sapiens, UniProt P01112). The test can be described thus: Binding to HRAS by surface plasmon resonance (SPR), KD and KD ratio to KRAS. Particulars: ratio of KD value for HRAS wild-type protein to KD value for KRAS (SPR). The gist of the method:
(§1)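 GDP-bound biotin-Avi RAS captured at ~100–300 RU, 30°C, pH 7.4 HBS containing 10 µM GDP, 10 mM MgCl2, 1 mM DTT, 0.01% Tween 20 and 4% DMSO. KD by 1:1 fitting.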

The target of test [2] is GDP-bound NRAS wild-type protein (Homo sapiens, UniProt P01111). Kind of test: Binding to NRAS by surface plasmon resonance (SPR), KD and KD ratio to KRAS. The note with it: ratio of KD value for GDP-bound NRAS wild-type protein to KD value for KRAS (SPR). The gist of the method: as §1
GDP-bound NRAS wild-type protein, sequence (P01111 whole entry): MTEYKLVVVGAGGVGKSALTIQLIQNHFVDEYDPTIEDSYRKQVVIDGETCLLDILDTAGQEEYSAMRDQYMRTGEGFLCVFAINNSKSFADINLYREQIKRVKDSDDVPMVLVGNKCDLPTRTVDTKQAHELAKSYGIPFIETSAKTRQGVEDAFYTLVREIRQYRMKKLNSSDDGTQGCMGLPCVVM

HRAS wild-type protein, sequence (P01112 whole entry): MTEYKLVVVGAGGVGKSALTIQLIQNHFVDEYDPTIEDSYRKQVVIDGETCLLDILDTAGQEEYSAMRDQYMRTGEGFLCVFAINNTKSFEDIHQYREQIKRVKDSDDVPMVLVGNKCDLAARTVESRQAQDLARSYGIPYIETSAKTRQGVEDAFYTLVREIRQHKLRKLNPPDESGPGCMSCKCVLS

In turn, `CCO[C@@H]1C[C@H]2C(=O)NC3(CCC3)C(=O)N(C)[C@@H](C3CCCC3)C(=O)N(C)[C@H](C(=O)N(C)C)CC(=O)N(CC)[C@@H](CC(C)C)C(=O)N[C@@H]([C@@H](C)CC)C(=O)N(C)CC(=O)N(C)[C@H]3C/C=C\CCN(C3=O)[C@@H](Cc3ccc(C(F)(F)F)cc3)C(=O)N(C)CC(=O)N[C@@H](CCc3cc(F)c(C(F)(F)F)c(F)c3)C(=O)N2C1` [PP1765] showed a pIC50 in test [1] of 7.77. In addition, the “HRAS /KRAS” value on HRAS wild-type protein is “A (a compound having 10 or more and less than 20 is denoted as A)”. Further, in test [2], the “NRAS /KRAS” value was “A (a compound having 10 or more and less than 20 is denoted as A)”.
In test [1], `CCC[C@H]1C(=O)N[C@@H]([C@@H](C)CC)C(=O)N(CCC)CC(=O)N(C)[C@H]2C/C=C\CCN(C2=O)[C@@H](Cc2ccc(C(F)(F)F)cc2)C(=O)N(C)CC(=O)N[C@@H](CCc2cc(F)c(C(F)(F)F)c(F)c2)C(=O)N2C[C@H](OCC)C[C@H]2C(=O)NC2(CCC2)C(=O)N(C)[C@@H](C2CCCC2)C(=O)N(C)[C@H](C(=O)N(C)C)CC(=O)N1C` [PP1767] had a negative-log IC50 (pIC50) of 7.75. In addition, the “HRAS /KRAS” value on HRAS wild-type protein was “B (a compound having 3 or more and less than 10 is denoted as B)”. The “NRAS /KRAS” value in test [2] is “A (a compound having 10 or more and less than 20 is denoted as A)”.
Consider `CCO[C@@H]1C[C@H]2C(=O)NC3(CC(C)(C)C3)C(=O)N(C)[C@@H](C3CCCC3)C(=O)N(CC)[C@H](C(=O)N(C)C)CC(=O)N(C)[C@@H](CC)C(=O)N[C@@H]([C@@H](C)CC)C(=O)N(C)CC(=O)N(C)[C@H]3C/C=C\CCN(C3=O)[C@@H](Cc3ccc(C(F)(F)F)cc3)C(=O)N(C)CC(=O)N[C@@H](CCc3cc(F)c(C(F)(F)F)c(F)c3)C(=O)N2C1` [PP1768], for which, in test [1], the pIC50 was 8.31. For the same compound, on HRAS wild-type protein, the “HRAS /KRAS” value is “A (a compound having 10 or more and less than 20 is denoted as A)”. Moreover, the “NRAS /KRAS” value in test [2] is “A (a compound having 10 or more and less than 20 is denoted as A)”.
In the case of `CCC[C@H]1C(=O)N[C@@H]([C@@H](C)CC)C(=O)N(C)CC(=O)N(C)[C@H]2C/C=C\CCN(C2=O)[C@@H](Cc2ccc(C(F)(F)F)cc2)C(=O)N(C)CC(=O)N[C@@H](CCc2cc(F)c(C(F)(F)F)c(F)c2)C(=O)N2C[C@H](OCC)C[C@H]2C(=O)NC2(CCC2)C(=O)N(C)[C@@H](C2CCCC2)C(=O)N(CCC)[C@H](C(=O)N(C)C)CC(=O)N1C` [PP1769], the negative-log IC50 (pIC50) in test [1] was 7.89. Moreover, at HRAS wild-type protein, the “HRAS /KRAS” value was “A (a compound having 10 or more and less than 20 is denoted as A)”. In test [2], the “NRAS /KRAS” value is “A (a compound having 10 or more and less than 20 is denoted as A)”.
`CCO[C@@H]1C[C@H]2C(=O)NC3(CC(C)(C)C3)C(=O)N(C)[C@@H](C3CCCC3)C(=O)N(C)[C@H](C(=O)N(C)CC)CC(=O)N(C)[C@@H](CC(C)C)C(=O)N[C@@H]([C@@H](C)CC)C(=O)NCC(=O)N(C)[C@H]3C/C=C\CCN(C3=O)[C@@H](Cc3ccc(C(F)(F)F)cc3)C(=O)N(C)CC(=O)N[C@@H](CCc3cc(F)c(C(F)(F)F)c(F)c3)C(=O)N2C1` [PP1771] gave a negative-log IC50 (pIC50) in test [1] of 8.18. Further, at HRAS wild-type protein, the “HRAS /KRAS” value is “A (a compound having 10 or more and less than 20 is denoted as A)”. The “NRAS /KRAS” value in test [2] is “A (a compound having 10 or more and less than 20 is denoted as A)”.
`CCO[C@@H]1C[C@H]2C(=O)NC3(CC(C)(C)C3)C(=O)N(C)[C@@H](C3CCCC3)C(=O)N(C)[C@H](C(=O)N(C)C)CC(=O)N(CC)[C@@H](CC(C)C)C(=O)N[C@@H]([C@@H](C)CC)C(=O)NCC(=O)N(C)[C@H]3C/C=C\CCN(C3=O)[C@@H](Cc3ccc(C(F)(F)F)cc3)C(=O)N(C)CC(=O)N[C@@H](CCc3cc(F)c(C(F)(F)F)c(F)c3)C(=O)N2C1` [PP1772] gave a pIC50 in test [1] of 7.87. Besides, at HRAS wild-type protein, the “HRAS /KRAS” value is “B (a compound having 3 or more and less than 10 is denoted as B)”. For the same compound, in test [2], the “NRAS /KRAS” value is “B (a compound having 3 or more and less than 10 is denoted as B)”.
Compound `CCO[C@@H]1C[C@H]2C(=O)NC3(CC(C)(C)C3)C(=O)N(C)[C@@H](C3CCCC3)C(=O)N(CC)[C@H](C(=O)N(C)C)CC(=O)N(C)[C@@H](CC(C)C)C(=O)N[C@@H]([C@@H](C)CC)C(=O)NCC(=O)N(C)[C@H]3C/C=C\CCN(C3=O)[C@@H](Cc3ccc(C(F)(F)F)cc3)C(=O)N(C)CC(=O)N[C@@H](CCc3cc(F)c(C(F)(F)F)c(F)c3)C(=O)N2C1` [PP1773] gave a negative logarithm of the IC50 (pIC50) in test [1] of 7.40. Moreover, the “HRAS /KRAS” value on HRAS wild-type protein was “A (a compound having 10 or more and less than 20 is denoted as A)”. Further, the “NRAS /KRAS” value in test [2] is “A (a compound having 10 or more and less than 20 is denoted as A)”.
`CC[C@H](C)[C@@H]1NC(=O)[C@H](CC(C)C)N(C)C(=O)C[C@@H](C(=O)N(C)C)N(C)C(=O)[C@H](C2CCCC2)N(C)C(=O)C2(CC(C)(C)C2)NC(=O)CN(C)C(=O)[C@H](CCc2cc(F)c(C(F)(F)F)c(F)c2)NC(=O)CN(C)C(=O)[C@H](Cc2ccc(C(F)(F)F)cc2)N2CC/C=C\C[C@@H](C2=O)N(C)C(=O)CN(C)C1=O` [PP1776] had a pIC50 in test [1] of 7.01. Also, the “HRAS /KRAS” value at HRAS wild-type protein is “A (a compound having 10 or more and less than 20 is denoted as A)”. For the same compound, the “NRAS /KRAS” value in test [2] is “A (a compound having 10 or more and less than 20 is denoted as A)”.
Consider `CCC[C@H]1C(=O)N[C@@H]([C@@H](C)CC)C(=O)N(C)CC(=O)N(C)[C@H]2C/C=C\CCN(C2=O)[C@@H](Cc2ccc(C(F)(F)F)cc2)C(=O)N(C)CC(=O)N[C@@H](CCc2cc(F)c(C(F)(F)F)c(F)c2)C(=O)N(CC)CC(=O)NC2(CC(C)(C)C2)C(=O)N(C)[C@@H](C2CCCC2)C(=O)N(C)[C@H](C(=O)N(C)C)CC(=O)N1C` [PP1777], for which, in test [1], the negative logarithm of the IC50 (pIC50) was 7.10. In addition, the “HRAS /KRAS” value at HRAS wild-type protein was “B (a compound having 3 or more and less than 10 is denoted as B)”. In addition, the “NRAS /KRAS” value in test [2] is “A (a compound having 10 or more and less than 20 is denoted as A)”.
In test [1], `CCO[C@@H]1C[C@H]2C(=O)N(C)C3(CCC3)C(=O)N(C)[C@@H](C3CCCC3)C(=O)N(C)[C@H](C(=O)N(C)C)CC(=O)N(C)[C@@H](CC)C(=O)N[C@@H]([C@@H](C)CC)C(=O)N(C)CC(=O)N(C)[C@H]3C/C=C\CCN(C3=O)[C@@H](Cc3ccc(C(F)(F)F)cc3)C(=O)N(C)CC(=O)N[C@@H](CCc3cc(F)c(C(F)(F)F)c(F)c3)C(=O)N2C1` [PP1779] had a pIC50 of 8.27. In addition, on HRAS wild-type protein, the “HRAS /KRAS” value is “B (a compound having 3 or more and less than 10 is denoted as B)”. For the same compound, the “NRAS /KRAS” value in test [2] is “A (a compound having 10 or more and less than 20 is denoted as A)”.
In test [1], `CC[C@H](C)[C@@H]1NC(=O)[C@H](CC)N(C)C(=O)C[C@@H](C(=O)N(C)C)N(C)C(=O)[C@H](C2CCCC2)N(C)C(=O)C2(CCC2)N(C)C(=O)[C@@H]2CCCN2C(=O)[C@H](CCc2cc(F)c(C(F)(F)F)c(F)c2)NC(=O)CN(C)C(=O)[C@H](Cc2ccc(C(F)(F)F)cc2)N2CC/C=C\C[C@@H](C2=O)N(C)C(=O)CN(C)C1=O` [PP1780] showed a negative logarithm of the IC50 (pIC50) of 8.09. Besides, the “HRAS /KRAS” value at HRAS wild-type protein was “A (a compound having 10 or more and less than 20 is denoted as A)”. Also, the “NRAS /KRAS” value in test [2] was “A (a compound having 10 or more and less than 20 is denoted as A)”.
Compound `CCO[C@@H]1C[C@H]2C(=O)N(C)C3(CCC3)C(=O)N(C)[C@@H](C3CCCC3)C(=O)N(C)[C@H](C(=O)N(C)C)CC(=O)N(C)[C@@H](CC)C(=O)N[C@@H]([C@@H](C)CC)C(=O)N(C)CC(=O)N(C)[C@H]3C/C=C\CCN(C3=O)[C@@H](Cc3ccc(C)cc3)C(=O)N(C)CC(=O)N[C@@H](CCc3cc(F)c(C(F)(F)F)c(F)c3)C(=O)N2C1` [PP1781] showed a pIC50 in test [1] of 8.68. Besides, at HRAS wild-type protein, the “HRAS /KRAS” value is “B (a compound having 3 or more and less than 10 is denoted as B)”. Besides, in test [2], the “NRAS /KRAS” value is “A (a compound having 10 or more and less than 20 is denoted as A)”.
Turning to `CCO[C@@H]1C[C@H]2C(=O)N(C)C3(CCC3)C(=O)N(C)[C@@H](C3CCCC3)C(=O)N(C)[C@H](C(=O)N(C)C)CC(=O)N(C)[C@@H](C3CC3)C(=O)N[C@@H]([C@@H](C)CC)C(=O)N(C)CC(=O)N(C)[C@H]3C/C=C\CCN(C3=O)[C@@H](Cc3ccc(C)cc3)C(=O)N(C)CC(=O)N[C@@H](CCc3cc(F)c(C(F)(F)F)c(F)c3)C(=O)N2C1` [PP1783], the negative-log IC50 (pIC50) in test [1] was 8.46. Also, the “HRAS /KRAS” value at HRAS wild-type protein is “B (a compound having 3 or more and less than 10 is denoted as B)”. Besides, the “NRAS /KRAS” value in test [2] was “A (a compound having 10 or more and less than 20 is denoted as A)”.
Consider `CC[C@H](C)[C@@H]1NC(=O)[C@H](C2CC2)N(C)C(=O)C[C@@H](C(=O)N(C)C)N(C)C(=O)[C@H](C2CCCC2)N(C)C(=O)C2(CCC2)N(C)C(=O)[C@@H]2CCCN2C(=O)[C@H](CCc2cc(F)c(C(F)(F)F)c(F)c2)NC(=O)CN(C)C(=O)[C@H](Cc2ccc(C)cc2)N2CC/C=C\C[C@@H](C2=O)N(C)C(=O)CN(C)C1=O` [PP1784], for which the pIC50 in test [1] is 8.11. In addition, the “HRAS /KRAS” value at HRAS wild-type protein was “B (a compound having 3 or more and less than 10 is denoted as B)”. Further, in test [2], the “NRAS /KRAS” value is “A (a compound having 10 or more and less than 20 is denoted as A)”.
In test [1], `CCO[C@@H]1C[C@H]2C(=O)N(C)C3(CCC3)C(=O)N(C)[C@@H](C3CCCC3)C(=O)N(C)[C@H](C(=O)N(C)C)CC(=O)N(C)[C@@H](CC)C(=O)N[C@@H]([C@@H](C)CC)C(=O)N3CCC[C@H]3C(=O)N(C)[C@H]3C/C=C\CCN(C3=O)[C@@H](Cc3ccc(C)cc3)C(=O)N(C)CC(=O)N[C@@H](CCc3cc(F)c(C(F)(F)F)c(F)c3)C(=O)N2C1` [PP1785] showed a pIC50 of 8.16. Further, the “HRAS /KRAS” value at HRAS wild-type protein was “A (a compound having 10 or more and less than 20 is denoted as A)”. In test [2], the “NRAS /KRAS” value was “A (a compound having 10 or more and less than 20 is denoted as A)”.

The term pIC50 denotes the IC50 on a negative log10 scale, so that one unit is a factor of ten. High values mean a low IC50, low ones a high IC50.
